Values of other authors in patent US6297274A, “Nonpeptide endothelin antagonists with increased water solubility” (priority 1998, dated 2001).
Where a SMILES comes first, the peptide text is derived from it. [ ]: non-standard residue; d: D form.

Assays:
[1] = system: ET-1 induced bronchoconstriction and tracheal smooth muscle contraction; conditions: allergic sheep; cited from earlier work
[2] = system: rat hypoxia model of hypertension; conditions: cited from earlier work
[3] = system: early cerebral vasospasm following subarachnoid hemorrhage (SAH); conditions: in vivo; cited from earlier work
[4] = system: ET-1-induced gastric ulceration; conditions: in vivo; cited from earlier work
[5] = system: early cerebral vasospasm following SAH in the rat; conditions: cited from earlier work
[6] = system: vasoconstriction of the basilar artery; conditions: after 7 days, canine two-hemorrhage model; cited from earlier work
[7] = system: liver; conditions: cited from earlier work
[8] = system: small intestinal mucosa; conditions: rats, local intra-arterial; cited from earlier work

Question: With `CC(C)C[C@@H]1NC(=O)[C@@H](C(C)C)NC(=O)[C@@H]2CCCN2C(=O)[C@@H](CC(=O)O)NC(=O)[C@@H](Cc2c[nH]c3ccccc23)NC1=O` [BQ-123] (cyclo(L[dW][dD]P[dV])) as the compound, how does the “ET-1 induced bronchoconstriction and tracheal smooth muscle contraction” value [1] read?
Answer: shown to block ET-1 induced bronchoconstriction and tracheal smooth muscle contraction in allergic sheep

Question: What about the “pulmonary vascular resistance and pulmonary arterial pressure” value [2] of the same compound?
Answer: provide protection in a rat hypoxia model of hypertension by lowering the increase in pulmonary vascular resistance and pulmonary arterial pressure

Question: And the “early cerebral vasospasm following SAH” value [3]?
Answer: prevent early cerebral vasospasm following subarachnoid hemorrhage (SAH)

Question: Which results are given for `COc1ccccc1Oc1c(NS(=O)(=O)c2ccc(C(C)(C)C)cc2)nc(-c2ncccn2)nc1OCCO` [Bosentan]?
Answer: pulmonary vascular resistance and pulmonary arterial pressure [2]: provide protection in a rat hypoxia model of hypertension by lowering the increase in pulmonary vascular resistance and pulmonary arterial pressure; ET-1-induced changes in gastric mucosal hemodynamics and gastric ulceration [4]: antagonist toward the ET-1-induced changes in gastric mucosal hemodynamics as well as on ET-1-induced gastric ulceration

Question: For `COc1cccc(Oc2c(NS(=O)(=O)c3ccc(C(C)(C)C)cc3)ncnc2OCCO)c1` [Ro 46-2005], which “early cerebral vasospasm following SAH” value [5] is on record?
Answer: prevent early cerebral vasospasm following SAH in the rat

Question: Which “vasoconstriction of the basilar artery” value [6] does the source give for FR 139317 here?
Answer: significantly inhibited the vasoconstriction of the basilar artery

Question: With endothelin as the compound, how does the “hepatic vasculature vasoconstriction and hepatic glucose output” value [7] read?
Answer: eliciting both sustained vasoconstriction of the hepatic vasculature and a significant increase in hepatic glucose output

Question: And the “small intestinal mucosal damage” value [8]?
Answer: shown to induce small intestinal mucosal damage in rats in a dose-dependent manner
